Where two headings read alike, the source gives them in different places.
What was measured:
[1] = target: T1, GST-tagged human recombinant active B-Raf (Δ1-415) (Homo sapiens, UniProt P15056); test: B-Raf kinase activity, IMAP coupled assay (B-Raf/MEK1/ERK2, fluorescence polarization); assay type: biochemical; conditions: bounds also given as pIC50 (>6, >7, >8); 60 min pre-incubation with compound, ATP 50 μM; read-out: IC50, B-Raf IMAP assay
T1 construct: GST; purchased Upstate/Millipore
Source text: (§1) In another assay the B-Raf kinase activity can be determined by using an IMAP assay (Immobilized Metal Assay for Phosphochemicals-based coupled assay). IMAP is a homogeneous fluorescence polarization (FP) assay based on affinity capture of phosphorylated peptide substrates. IMAP uses fluorescein-labeled peptide substrates that, upon phosphorylation by a protein kinase, bind to so called IMAP nanoparticles, which are derivatized with trivalent metal complexes. Such binding causes a change in the rate of the molecular motion of the peptide, and results in an increase in the FP value observed for the fluorescein label attached to the substrate peptide. In such an assay, B-Raf phosphorylates unactive MEK1. The phosphorylated MEK1 is capable of phosphorylating ERK2, which subsequently phosphorylates the fluorescein-labeled peptide substrate.
Determination of B-Raf Kinase Activity using an IMAP Assay
as §1, with “Inhibition of” for “In another assay the”, “was measured” for “can be determined by”, “Immobilized” for “IMAP assay (Immobilized”, “assay (IMAP).” for “assay).”, “this” for “such an”
Enzymes, substrate and ATP were diluted at all steps in Kinase Reaction buffer (10 mM Tris-HCl, 10 mM MgCl2, 0.01% Tween-20, 0.05% NaN3 pH 7.2, 1 mM DTT). The final volume at the kinase reaction step of the assay in the 384-well plate was 20 μl. The concentrations within brackets are final concentrations in the assay. B-Raf (GST-tagged human recombinant active B-Raf (Δ1-415), Upstate/Millipore; 0.2 U/ml) was pre-incubated with compounds or DMSO (1% final concentration) for 60 minutes at room temperature in the dark. Thereafter, MEK 1 (GST-tagged human recombinant unactive MEK1 (full-length); 64 ng/ml), ERK2 (GST-tagged human recombinant unactive ERK2 (full-length); 600 ng/ml), peptide substrate (Erktide, Molecular Devices; 50 nM) and ATP (50 μM) were added to the wells and the mix was incubated for another 60 minutes at 30° C. in the dark. Then, IMAP progressive binding buffer (75% 1× buffer A, 25% 1× buffer B, 1:900 Progressive Binding Reagent; Molecular Devices) was added followed by an incubation step of 60 minutes at room temperature in the dark. Finally, the FP signal was read on an Envision Multilabel reader (Perkin Elmer).

[2] = system: phosphorylation of ERK1/2 in A375 cells containing mutant B-Raf (V600E); test: Phospho-ERK FACE assay in A375 (B-Raf mutated) melanoma cell line; assay type: cell-based; conditions: Homo sapiens, A-375, A375 cells, 2 hours incubation, read-out: IC50, A375 melanoma phospho-ERK assay
Description: The B-Raf activity can also be determined in a B-Raf mutated melanoma cell line, such as the A375 cell line. Inhibition of phosphorylation of ERK1/2 can be measured using a Fast Activated Cell-based ELISA (FACE) from Active Motif (Carlsbad, U.S.A., CA). E.g. A375 cells, which are cells containing a mutant form of B-Raf (V600E) and thus contain high levels of phosphorylated ERK, can be incubated with Raf inhibitors. Then cells can be incubated with anti-phospho-ERK antibody and subsequently with horse radish peroxidase (HRP)-labeled secondary antibody. Finally, chemiluminescence reagents can be added, which react with HRP, to give a luminescence signal.
Determination of B-Raf Activity Using a A375 (B-Raf mutated) Melanoma Cell Line (Phospho-ERK FACE Assay)
Inhibition of phosphorylation of ERK1/2 was measured using a Fast Activated Cell-based ELISA (FACE) from Active Motif (Carlsbad, U.S.A., CA). Briefly, A375 cells, which are cells containing a mutant form of B-Raf (V600E) and thus contain high levels of phosphorylated ERK, were incubated for 2 hours with Raf inhibitors. Then, cells were fixed with paraformaldehyde, washed and following quenching and blocking, incubated with anti-phospho-ERK antibody, and as a control, on a separate plate, with ERK antibody. After washing and removal of the primary antibodies, the fixed cells were incubated with horse radish peroxidase (HRP)-labeled secondary antibody. Finally, chemiluminescence reagents were added, which react with HRP, to give a luminescence signal.
Detailed protocol: A375 cells were cultured in DMEM/F12 (Dulbecco's Modified Eagle Medium Nutrient Mixture F-12) (Invitrogen), supplemented with 10% fetal bovine serum (FBS) (Biowhittaker), 100 U/ml penicillin G and 100 μg/ml streptomycin (Gibco). For the phospho ERK assay, cells were seeded at a density of 15,000 cells/well in 100 μl culture medium in 96-well plates and incubated in a humidified atmosphere at 5% CO2 and 37° C. After 24 hours, cells were washed with DMEM/F12 supplemented with 0.1% FBS (assay medium 120 μl of assay medium was added and the plates were incubated overnight in a humidified atmosphere at 5% CO2 and 37° C. The next day, the assay medium was removed and compounds diluted in assay medium were added to the cells. Final DMSO concentration in the assay was 1%. After 2 hours incubation, cells were fixed by replacing the assay medium with 100 μl of 4% formaldehyde (Bio-Connect, Huissen, The Netherlands) in PBS. After 20 minutes of incubation at room temperature, cells were washed three times with 200 μl wash buffer (0.1% (vol/vol) Triton X-100 in PBS from the FACE kit) followed by an incubation of 20 minutes with 100 μl quenching buffer, containing 1% (vol/vol) hydrogen peroxide (Thermo Fisher Scientific) and 0.1% (vol/vol) sodium azide (Sigma-Aldrich) in phosphate-buffered saline. Cells were washed two times with wash buffer, incubated for 1 hour with 100 μl antibody blocking buffer from the kit and washed two times again. 40 μl of diluted antibody against phosphorylated ERK1/2 (1:500 from the FACE kit) was added and incubated overnight at 4° C. The phospho-ERK antibody has been raised against a synthetic phospho-peptide corresponding to residues Thr202 and Tyr204 of human ERK1 and Thr185 and Tyr187 of human ERK2. For the detection of total ERK, antibody against ERK1 and ERK2 (1:500 from the FACE kit) was added. The excessive primary antibody was washed out, and 100 μl diluted HRP-conjugated anti-rabbit IgG (1:2000 from the FACE kit) was added and incubated for 1 hour at room temperature. Secondary antibody was removed and cells were washed 3 times with wash buffer and twice with PBS. 50 μl per well of FACE chemiluminescent working solution was added. Chemiluminescence was measured on an Envision Multilabel reader.

[3] = class given as below 100 nM (pIC50>7)
[4] = between 1 μM and 100 nM (6<pIC50<7)

T1 sequence (P15056 416-766, stated change not applied): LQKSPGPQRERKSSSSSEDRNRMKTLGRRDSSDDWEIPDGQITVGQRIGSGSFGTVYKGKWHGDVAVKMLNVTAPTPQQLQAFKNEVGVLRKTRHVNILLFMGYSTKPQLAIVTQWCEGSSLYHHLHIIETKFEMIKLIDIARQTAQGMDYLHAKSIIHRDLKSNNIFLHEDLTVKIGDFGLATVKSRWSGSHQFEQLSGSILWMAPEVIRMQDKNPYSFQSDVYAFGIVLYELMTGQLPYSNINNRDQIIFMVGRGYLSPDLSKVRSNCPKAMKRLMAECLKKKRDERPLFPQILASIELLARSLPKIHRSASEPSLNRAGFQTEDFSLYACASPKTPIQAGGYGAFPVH

Structure (SMILES)	IC50 [1]	IC50 [2, 3]	IC50 [2, 4]	IC50 ([2]; class between 10 μM and 1 μM (5<pIC50<6))
CNc1c(C(=O)Nc2cc(NC(=O)c3cccc(C(C)(C)C#N)c3)ccc2C)sc2nccnc12 [Example 2, N-(5-(3-(2-cyanopropan-2-yl)benzamido)-2-methylphenyl)-7-(methylamino)thieno[2,3-b]pyrazine-6-carboxamide]	< 10 nM	< 100 nM		
Cc1ccc(NC(=O)c2cccc(C(C)(C)C#N)c2)cc1NC(=O)c1sc2ncc(Br)nc2c1N [Example 3, 7-amino-2-bromo-N-(5-(3-(2-cyanopropan-2-yl)benzamido)-2-methylphenyl)thieno[2,3-b]pyrazine-6-carboxamide]	< 100 nM		100 to 1000 nM	
Cc1ccc(NC(=O)c2cccc(C(C)(C)C#N)c2)cc1NC(=O)c1sc2ncc(N(C)C)nc2c1N [Example 4, 7-amino-N-(5-(3-(2-cyanopropan-2-yl)benzamido)-2-methylphenyl)-2-(dimethylamino)thieno[2,3-b]pyrazine-6-carboxamide]	< 10 nM	< 100 nM		
Cc1ccc(NC(=O)c2cccc(C(C)(C)C#N)c2)cc1NC(=O)c1sc2ncc(NCCN(C)C)nc2c1N [Example 5, 7-amino-N-(5-(3-(2-cyanopropan-2-yl)benzamido)-2-methylphenyl)-2-(2-(dimethylamino)ethylamino)thieno[2,3-b]pyrazine-6-carboxamide]	< 10 nM		100 to 1000 nM	
CNc1cnc2sc(C(=O)Nc3cc(NC(=O)c4cccc(C(C)(C)C#N)c4)ccc3C)c(N)c2n1 [Example 6, 7-amino-N-(5-(3-(2-cyanopropan-2-yl)benzamido)-2-methylphenyl)-2-(methylamino)thieno[2,3-b]pyrazine-6-carboxamide]	< 10 nM	< 100 nM		
CCNc1cnc2sc(C(=O)Nc3cc(NC(=O)c4cccc(C(C)(C)C#N)c4)ccc3C)c(N)c2n1 [Example 7, 7-amino-N-(5-(3-(2-cyanopropan-2-yl)benzamido)-2-methylphenyl)-2-(ethylamino)thieno[2,3-b]pyrazine-6-carboxamide]	< 100 nM	< 100 nM		
Cc1ccc(NC(=O)c2cccc(C(C)(C)C#N)c2)cc1NC(=O)c1sc2ncc(N3CCN(C)CC3)nc2c1N [Example 8, 7-amino-N-(5-(3-(2-cyanopropan-2-yl)benzamido)-2-methylphenyl)-2-(4-methylpiperazin-1-yl)thieno[2,3-b]pyrazine-6-carboxamide]	< 10 nM		100 to 1000 nM	
Cc1ccc(NC(=O)c2cccc(C(C)(C)C#N)c2)cc1NC(=O)c1sc2ncc(N3CCOCC3)nc2c1N [Example 9, 7-amino-N-(5-(3-(2-cyanopropan-2-yl)benzamido)-2-methylphenyl)-2-morpholinothieno[2,3-b]pyrazine-6-carboxamide]	< 10 nM	< 100 nM		
COCCNc1cnc2sc(C(=O)Nc3cc(NC(=O)c4cccc(C(C)(C)C#N)c4)ccc3C)c(N)c2n1 [Example 10, 7-amino-N-(5-(3-(2-cyanopropan-2-yl)benzamido)-2-methylphenyl)-2-(2-methoxyethylamino)thieno[2,3-b]pyrazine-6-carboxamide]	< 10 nM	< 100 nM		

Further lines, results first:

IC50 [1]	IC50 [2, 3]	IC50 [2, 4]	IC50 ([2]; class between 10 μM and 1 μM (5<pIC50<6))	Structure (SMILES)
< 100 nM	< 100 nM			Cc1ccc(NC(=O)c2cccc(C(C)(C)C#N)c2)cc1NC(=O)c1sc2ncc(NC3CCOCC3)nc2c1N [Example 11, 7-amino-N-(5-(3-(2-cyanopropan-2-yl)benzamido)-2-methylphenyl)-2-(tetrahydro-2H-pyran-4-ylamino)thieno[2,3-b]pyrazine-6-carboxamide]
< 100 nM	< 100 nM			CCNc1cnc2sc(C(=O)Nc3cc(NC(=O)c4cccc(C(C)(C)C#N)c4)ccc3C)cc2n1 [Example 13, N-(5-(3-(2-cyanopropan-2-yl)benzamido)-2-methylphenyl)-2-(ethylamino)thieno[2,3-b]pyrazine-6-carboxamide]
< 100 nM			1000 to 10000 nM	Cc1ccc(NC(=O)c2cccc(C(C)(C)C#N)c2)cc1NC(=O)c1cc2nc(NCCN(C)C)cnc2s1 [Example 14, N-(5-(3-(2-cyanopropan-2-yl)benzamido)-2-methylphenyl)-2-(2-(dimethylamino)ethylamino)thieno[2,3-b]pyrazine-6-carboxamide]
< 10 nM	< 100 nM			Cc1ccc(NC(=O)c2cccc(C(C)(C)C#N)c2)cc1NC(=O)c1cc2nc(N(C)C)cnc2s1 [Example 15, N-(5-(3-(2-cyanopropan-2-yl)benzamido)-2-methylphenyl)-2-(dimethylamino)thieno[2,3-b]pyrazine-6-carboxamide]
< 100 nM	< 100 nM			Cc1ccc(NC(=O)c2cccc(C(C)(C)C#N)c2)cc1NC(=O)c1cc2nc(NC(C)C)cnc2s1 [Example 16, N-(5-(3-(2-cyanopropan-2-yl)benzamido)-2-methylphenyl)-2-(isopropylamino)thieno[2,3-b]pyrazine-6-carboxamide]
< 100 nM		100 to 1000 nM		CNc1cnc2sc(C(=O)Nc3cc(NC(=O)c4cccc(C(C)(C)C#N)c4)ccc3C)cc2n1 [Example 17, N-(5-(3-(2-cyanopropan-2-yl)benzamido)-2-methylphenyl)-2-(methylamino)thieno[2,3-b]pyrazine-6-carboxamide]

Source: patent US8669256B2, “Substituted thieno[2,3-b]pyrazine compounds as modulators of B-Raf kinase activity” (Merck Sharp & Dohme B.V., priority 2010, dated 2014)
